The values that follow come from patent US7906655B2, “Hepatitis C virus inhibitors” (Bristol-Myers Squibb Company, priority 2008, dated 2011).

Where only a bound is given, the exact number is not on record here.

The test system of one experiment is HCV 1b genotype. In words: HCV Replicon assay (HCV-neo replicon cells, wild-type). It is filed as cell-based. As to conditions: HCV 1b genotype replicon; class symbols. The method in brief:
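Inhibition was measured in HCV-neo (genotype 1b) replicon cells. Some assay versions used luciferase reporters.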
A general note: Replicon systems follow genome replication, usually without infectious particles.
With `COC(=O)NC(C(=O)N1[C@@H]2C[C@@H]2C[C@H]1c1nc2cc(Oc3cccc(-c4ccc5[nH]c([C@@H]6C[C@H]7C[C@H]7N6C(=O)C(NC(=O)OC)c6ccccc6)nc5c4)c3)ccc2[nH]1)c1ccccc1` (stereo partly drawn) [Example V4, methyl (2-((1R,3S,5R)-3-(5-(3-((2-((1R,3S,5R)-2-(((methoxycarbonyl)amino)(phenyl)acetyl)-2-azabicyclo[3.1.0]hex-3-yl)-1H-benzimidazol-5-yl)oxy)phenyl)-1H-benzimidazol-2-yl)-2-azabicyclo[3.1.0]hex-2-yl)-2-oxo-1-phenylethyl) carbamate], the EC50 was under 4.57 nM.

For `COC(=O)NC(C(=O)N1[C@@H]2C[C@@H]2C[C@H]1c1nc2cc(Oc3cccc(-c4ccc5[nH]c([C@@H]6C[C@H]7C[C@H]7N6C(=O)C(NC(=O)OC)c6ccccc6)nc5c4)c3)ccc2[nH]1)c1ccccc1` (stereo partly drawn) [Example V5, methyl (2-((1R,3S,5R)-3-(5-(3-((2-((1R,3S,5R)-2-(((methoxycarobnyl)amino)phenyl)acetyl)-2-azabicyclo[3.1.0]hex-3-yl)-1H-benzimidazol-5-yl)oxy)phenyl)-1H-benzimidazol-2-yl)-2-azabicyclo[3.1.0]hex-2-yl)-2-oxo-1-phenylethyl) carbamate], the EC50 was under 4.57 nM.

Regarding `COC(=O)N[C@@H](C(=O)N1[C@@H]2C[C@@H]2C[C@H]1c1nc2cc(-c3ccc(Oc4cccc5[nH]c([C@@H]6C[C@H]7C[C@H]7N6C(=O)[C@H](NC(=O)OC)C(C)C)nc45)cc3)ccc2[nH]1)C(C)C` [Example V7, methyl ((1R)-1-(((1R,3S,5R)-3-(4-(4-(2-((1R,3S,5R)-2-((2R)-2-(methoxycarbonyl)amino)-3-methylbutanoyl)-2-azabicyclo[3.1.0]hex-3-yl)-1H-benzimidazol-5-yl)phenoxy)-1H-benzimidazol-2-yl)-2-azabicyclo[3.1.0]hex-2-yl)carbonyl)-2-methylpropyl) carbamate], the EC50 was in the range of 4.57 to 99 nM.

`COC(=O)N[C@@H](C)C(=O)N1[C@@H]2C[C@@H]2C[C@H]1c1nc2cc(-c3ccc(Oc4cccc5[nH]c([C@@H]6C[C@H]7C[C@H]7N6C(=O)[C@H](C)NC(=O)OC)nc45)cc3)ccc2[nH]1` [Example V8, methyl ((1S)-2-((1R,3S,5R)-3-(5-(4-((2-((1R,3S,5R)-2-(N-(methoxycarbonyl)-L-alanyl)-2-azabicyclo[3.1.0]hex-3-yl)-1H-benzimidazol-4-yl)oxy)phenyl)-1H-benzimidazol-2-yl)-2-azabicyclo[3.1.0]hex-2-yl)-1-methyl-2-oxoethyl) carbamate]: the EC50 was under 4.57 nM.

Regarding `COC(=O)NC(C(=O)N1[C@@H]2C[C@@H]2C[C@H]1c1nc2cc(-c3ccc(Oc4cccc5[nH]c([C@@H]6C[C@H]7C[C@H]7N6C(=O)C(NC(=O)OC)c6ccccc6)nc45)cc3)ccc2[nH]1)c1ccccc1` (stereo partly drawn) [Example V9, methyl (2-((1R,3S,5R)-3-(5-(4-((2-((1R,3S,5R)-2-(((methoxycarbonyl)amino)(phenyl)acetyl)-2-azabicyclo[3.1.0]hex-3-yl)-1H-benzimidazol-4-yl)oxy)phenyl)-1H-benzimidazol-2-yl)-2-azabicyclo[3.1.0]hex-2-yl)-2-oxo-1-phenylethyl) carbamate], the EC50 was under 4.57 nM.

With `COC(=O)NC(C(=O)N1[C@@H]2C[C@@H]2C[C@H]1c1nc2cc(-c3ccc(Oc4cccc5[nH]c([C@@H]6C[C@H]7C[C@H]7N6C(=O)C(NC(=O)OC)c6ccccc6)nc45)cc3)ccc2[nH]1)c1ccccc1` (stereo partly drawn) [Example V10, methyl (2-((1R,3S,5R)-3-(5-(4-((2-((1R,3S,5R)-2-(((methoxycarbonyl)amino)(phenyl)acetyl)-2-azabicyclo[3.1.0]hex-3-yl)-1H-benzimidazol-4-yl)oxy)phenyl)-1H-benzimidazol-2-yl)-2-azabicyclo[3.1.0]hex-2-yl)-2-oxo-1-phenylethyl) carbamate], the concentration giving a half-maximal response (EC50) was under 4.57 nM.

Take `O=C1CC[C@@H](c2nc3cc(CCc4ccc5nc([C@@H]6CCC(=O)N6C(=O)OCc6ccccc6)[nH]c5c4)ccc3[nH]2)N1C(=O)OCc1ccccc1` [OL3, benzyl (2S)-2-(5-(2-(2-((2S)-1-(((benzyloxy)carbonyl)-5-oxo-2-pyrrolidinyl)-1H-benzimidazol-6-yl)ethyl)-1H-benzimidazol-2-yl)-5-oxo-1-pyrrolidinecarboxylate]: the half-maximal effective concentration (EC50) lay within 100 to 999 nM.

As for `CSCC[C@H](NC(=O)OCc1ccccc1)c1nc2cc(CCc3ccc4nc([C@H](CCSC)NC(=O)OCc5ccccc5)[nH]c4c3)ccc2[nH]1` [OL4, benzyl ((1S)-1-(5-(2-(2-((1S)-1-(((benzyloxy)carbonyl)amino)-3-(methylsulfanyl)propyl)-1H-benzimidazol-6-yl)ethyl)-1H-benzimidazol-2-yl)-3-(methylsulfanyl)propyl) carbamate], the concentration giving a half-maximal response (EC50) was 4.57 to 99 nM.

As to `C[C@@H](NC(=O)OCc1ccccc1)c1nc2cc(CCc3ccc4nc([C@@H](C)NC(=O)OCc5ccccc5)[nH]c4c3)ccc2[nH]1` [OL6, benzyl ((1R)-1-(5-(2-(2-(1R)-1-(((benzyloxy)carbonyl)amino)ethyl-1H-benzimidazol-6-yl)ethyl)-1H-benzimidazol-2-yl)ethyl)carbamate], the 50% effective concentration (EC50) lay in the range of 100 to 999 nM.

The experiment is the same for the next values; noted with them: Hepatitis C virus, HCV 1b genotype replicon; class symbols.
`COC(=O)N[C@H](C(=O)N1[C@@H]2C[C@@H]2C[C@H]1c1nc2cc(-c3ccc(Oc4cccc5[nH]c([C@@H]6C[C@H]7C[C@H]7N6C(=O)[C@@H](NC(=O)OC)C(C)C)nc45)cc3)ccc2[nH]1)C(C)C` [Example V6, Methyl((1S)-1-(((1R,3S,5R)-3-(4-(4-(2-((1R,3S,5R)-2-((2S)-2-((methoxycarbonyl)amino)-3-methylbutanoyl)-2-azabicyclo[3.1.0]hex-3-yl)-1H-benzimidazol-5-yl)phenoxy)-1H-benzimidazol-2-yl)-2-azabicyclo[3.1.0]hex-2-yl)carbonyl)-2-methylpropyl)carbamate]: the EC50 is under 4.57 nM.

Turning to `COC(=O)N[C@H](C(=O)N1CCC[C@H]1c1nc2cc(-c3ccc(Oc4cccc5[nH]c([C@@H]6CCCN6C(=O)[C@@H](NC(=O)OC)C(C)C)nc45)cc3)ccc2[nH]1)C(C)C` [Example V11, Methyl((1S)-1-(((2S)-2-(4-(4-(2-((2S)-1-((2S)-2-((methoxycarbonyl)amino)-3-methylbutanoyl)-2-pyrrolidinyl)-1H-benzimidazol-5-yl)phenoxy)-1H-benzimidazol-2-yl)-1-pyrrolidinyl)carbonyl)-2-methylpropyl)carbamate], the EC50 is under 4.57 nM.

For the molecule `COC(=O)N[C@H](C(=O)N1CCC[C@H]1c1nc2cc(Oc3ccc(-c4ccc5[nH]c([C@@H]6CCCN6C(=O)[C@@H](NC(=O)OC)C(C)C)nc5c4)cc3)ccc2[nH]1)C(C)C` [Example V12, Methyl((1S)-1-(((2S)-2-(5-(4-(2-((2S)-1-((2S)-2-((methoxycarbonyl)amino)-3-methylbutanoyl)-2-pyrrolidinyl)-1H-benzimidazol-5-yl)phenoxy)-1H-benzimidazol-2-yl)-1-pyrrolidinyl)carbonyl)-2-methylpropyl)carbamate], the concentration giving a half-maximal response (EC50) was under 4.57 nM.

As to `C[C@](O)(C(=O)N1CCC[C@H]1c1nc2ccc(-c3ccc(-c4ccc5nc([C@@H]6CCCN6C(=O)[C@](C)(O)c6ccccc6)[nH]c5c4)o3)cc2[nH]1)c1ccccc1` [JG1, (2R,2′R)-1,1′-(2,5-furandiylbis(1H-benzimidazole-5,2-diyl(2S)-2,1-pyrrolidinediyl))bis(1-oxo-2-phenyl-2-propanol)], the EC50 was 4.57 to 99 nM.

As for `O=C([C@H](O)c1ccccc1)N1CCC[C@H]1c1nc2cc(-c3ccc(-c4ccc5[nH]c([C@@H]6CCCN6C(=O)[C@H](O)c6ccccc6)nc5c4)o3)ccc2[nH]1` [JG2, (1R,1′R)-2,2′-(2,5-furandiylbis(1H-benzimidazole-5,2-diyl(2S)-2,1-pyrrolidinediyl))bis(2-oxo-1-phenylethanol)], the 50% effective concentration (EC50) is under 4.57 nM.

`O=C([C@@H](O)c1ccccc1)N1CCC[C@H]1c1nc2cc(-c3ccc(-c4ccc5[nH]c([C@@H]6CCCN6C(=O)[C@@H](O)c6ccccc6)nc5c4)o3)ccc2[nH]1` [JG3, (1S,1′S)-2,2′-(2,5-furandiylbis(1H-benzimidazole-5,2-diyl(2S)-2,1-pyrrolidinediyl))bis(2-oxo-1-phenylethanol)]: the half-maximal effective concentration (EC50) lay in the range of 4.57 to 99 nM.

As to `CN(C)[C@@H](C(=O)N1CCC[C@H]1c1nc2cc(-c3ccc(-c4ccc5nc([C@@H]6CCCN6C(=O)[C@@H](c6ccccc6)N(C)C)[nH]c5c4)o3)ccc2[nH]1)c1ccccc1` [JG4, (1R)-2-((2S)-2-(5-(5-(2-((2S)-1-((2R)-2-(dimethylamino)-2-phenylacetyl)-2-pyrrolidinyl)-1H-benzimidazol-6-yl)-2-furyl)-1H-benzimidazol-2-yl)-1-pyrrolidinyl)-N,N-dimethyl-2-oxo-1-phenylethanamine], the 50% effective concentration (EC50) is under 4.57 nM.

As to `C[C@H](NC(=O)OCc1ccccc1)c1nc2cc(CCc3ccc4[nH]c([C@H](C)NC(=O)OCc5ccccc5)nc4c3)ccc2[nH]1` [OL1, benzyl((1S)-1-(5-(2-(2-((1)-1-(((benzyloxy)carbonyl)amino)ethyl)-1H-benzimidazol-6-yl)ethyl)-1H-benzimidazol-2-yl)ethyl)carbamate], the EC50 is 4.57 to 99 nM.

`CC(C)(C)O[C@@H]1C[C@@H](c2nc3cc(CCc4ccc5nc([C@@H]6C[C@@H](OC(C)(C)C)CN6C(=O)OCc6ccccc6)[nH]c5c4)ccc3[nH]2)N(C(=O)OCc2ccccc2)C1` [OL5, benzyl (2S,4R)-2-(5-(2-(2-((2S,4R)-1-((benzyloxy)carbonyl)-4-tert-butoxy-2-pyrrolidinyl)-1H-benzimidazol-6-yl)ethyl)-1H-benzimidazol-2-yl)-4-tert-butoxy-1-pyrrolidinecarboxylate]: the half-maximal effective concentration (EC50) was 100 to 999 nM.

Consider `CC[C@H](NC(=O)OCc1ccccc1)c1nc2cc(CCc3ccc4nc([C@H](CC)NC(=O)OCc5ccccc5)[nH]c4c3)ccc2[nH]1` [OL7, benzyl ((1S)-1-(5-(2-(2-((1S)-1-(((benzyloxy)carbonyl)amino)propyl)-1H-benzimidazol-6-yl)ethyl)-1H-benzimidazol-2-yl)propyl)carbamate], for which the concentration giving a half-maximal response (EC50) lay within 4.57 to 99 nM.

The experiment is the same for the next values; noted with them: Hepatitis C virus, HCV 1b genotype replicon; numeric values.
On to `CC(C)(C)OC[C@H](NC(=O)OCc1ccccc1)c1nc2cc(CCc3ccc4nc([C@H](COC(C)(C)C)NC(=O)OCc5ccccc5)[nH]c4c3)ccc2[nH]1` [OL2, benzyl ((1R)-1-(5-(2-(2-((1R)-1-(((benzyloxy)carbonyl)amino)-2-tert-butoxyethyl)-1H-benzimidazol-6-yl)ethyl)-1H-benzimidazol-2-yl)-2-tert-butoxyethyl)carbamate], for which the 50% effective concentration (EC50) was 20 nM.

Usually EC50 stands for the concentration at which the effect is half-maximal.
